# Where two headings read alike, the source gives them in different places. Residues, ends and D or L forms follow the SMILES beside them. No end group written: not given here.
# What was measured:
# Type in all cases: cell-based
# [1] = test system: Escherichia coli ATCC 25922
# Procedure: (§1) Bacteria were grown overnight at 37 °C in Mueller-Hinton Broth (MHB; Sigma-Aldrich, St. Louis. MO, USA) in a shaking incubator and aliquoted into cryovials with a 50% glycerol solution in a 1:1 ratio. No additives were added to the MHB during the growth of bacterial isolates. Glycerol stocks were stored at −80 °C.
# (§2) The antimicrobial activity of the putative AMPs was determined by a broth microdilution assay as described by the Clinical and Laboratory Standards Institute, with the published adaptations for testing of cationic peptides. Escherichia coli 25922 and Staphylococcus aureus 29213 isolates were purchased from the American Type Culture Collection (ATCC; Manassas, VA, USA). A human clinical isolate of Salmonella enterica serovar Enteritidis was provided by the BC Centre for Disease Control. Bacteria from stocks stored at −80 °C were streaked onto nonselective Columbia blood agar with 5% sheep blood (Oxoid) and incubated overnight at 37 °C. Next, 2–4 colonies were streaked onto a new agar plate to ensure uniform health of colonies used in the broth microdilution assay. Isolated colonies were suspended in MHB and the optical density was measured with a spectrophotometer to create an initial inoculum concentration of approximately 1 × 10^8 cfu/mL. The inoculum was diluted 1:250 to a final concentration of 2–8 × 10^5 cfu/mL, which was confirmed by performing a Total Viability Count (TVC). The TVC consisted of plating a 1:1000 dilution of the final inoculum on nonselective media and was also used to confirm the health and purity of the inoculum in each trial.
# (§3) Lyophilized 80 µg peptide aliquots synthesized by GenScript (Piscataway, NJ, USA) were resuspended to 1.28 mg/mL with UltraPure water (Thermo Fisher Scientific, Waltham, MA, USA) and serially diluted in polypropylene 96-well microtiter plates (Greiner Bio-One #650261, Kremsmünster, Austria) from 128 down to 0.5 µg/mL. Two columns per plate were reserved for growth and sterility controls. Inoculum was added to the wells containing the peptide and the growth control. Plates were incubated for 20–24 h at 37 °C. The minimum inhibitory concentration (MIC) was determined as the lowest peptide concentration where there was no visible bacterial growth.
# [2] = test system: Salmonella enterica serovar Enteritidis (human clinical isolate)
# Procedure: as §1, §2, §3
# [3] = test system: Staphylococcus aureus ATCC 29213
# Procedure: as §1, §2, §3
# [4] = broth microdilution in MHB, peptide 128 down to 0.5 µg/mL, 20–24 h at 37 °C, no visible growth, range of three independent experiments
Molecule,"MIC, E. coli ATCC 25922 [1, 4] [µg/mL]","MIC, Salmonella Enteritidis [2, 4] [µg/mL]","MIC, S. aureus ATCC 29213 [3, 4] [µg/mL]","MIC, E. coli ATCC 25922 ([1]; ATCC 25922) [µg/mL]","MIC, Salmonella Enteritidis ([2]; serovar Enteritidis (human clinical isolate)) [µg/mL]","MIC, S. aureus ATCC 29213 ([3]; ATCC 29213) [µg/mL]"
CC(C)C[C@H](NC(=O)CN)C(=O)N[C@@H](CC(C)C)C(=O)NCC(=O)N[C@@H](CCCCN)C(=O)N[C@H](C(=O)N[C@@H](CC(C)C)C(=O)NCC(=O)N[C@H](C(=O)NCC(=O)N[C@@H](CCCCN)C(=O)N[C@@H](CCCCN)C(=O)N[C@H](C(=O)N[C@@H](CC(C)C)C(=O)N[C@@H](CS)C(=O)NCC(=O)N[C@H](C(=O)N[C@H](C(=O)NCC(=O)N[C@@H](CCCNC(=N)N)C(=O)N[C@@H](CCC(=O)O)C(=O)N[C@@H](CCCNC(=N)N)C(=O)N[C@@H](CS)C(=O)N[C@@H](CCC(N)=O)C(=O)O)[C@@H](C)O)C(C)C)C(C)C)C(C)C)C(C)C [PeNi5] (H-GLLGKVLGVGKKVLCGVTGRERCQ-OH; N-terminus and C-terminus assumed),32,64,> 128,,,
GILRSLGWIQMPRSRRRHR [AnFl2],16 to 32,128,> 128,,,
"GILSGLLGAGKKIVCGLSGMC [RaOm2, rAMPage-discovered AMP, Rana omeimontis]",64 to 128,> 128,> 128,,,
ITEPVGTKAPTFTSELRGGWLKKR [PaVa3],> 128,> 128,> 128,,,
CC[C@H](C)[C@H](NC(=O)CN)C(=O)N[C@@H](CC(C)C)C(=O)N[C@H](C(=O)N[C@@H](CC(=O)O)C(=O)N[C@H](C(=O)N[C@@H](CC(C)C)C(=O)N[C@@H](CCCCN)C(=O)NCC(=O)N[C@@H](C)C(=O)N[C@@H](C)C(=O)N[C@@H](CCCCN)C(=O)N[C@@H](CC(N)=O)C(=O)N[C@H](C(=O)N[C@@H](C)C(=O)NCC(=O)N[C@H](C(=O)N[C@@H](CC(C)C)C(=O)N[C@@H](CC(C)C)C(=O)N[C@@H](CC(=O)O)C(=O)N[C@@H](CCCCN)C(=O)N[C@@H](CC(C)C)C(=O)N[C@@H](CCCCN)C(=O)N[C@@H](CS)C(=O)N[C@@H](CCCCN)C(=O)N[C@H](C(=O)N[C@H](C(=O)NCC(=O)NCC(=O)N[C@@H](CS)C(=O)O)[C@@H](C)O)[C@@H](C)CC)C(C)C)C(C)C)[C@@H](C)O)[C@@H](C)O [PeNi11] (H-GILTDTLKGAAKNVAGVLLDKLKCKITGGC-OH; N-terminus and C-terminus assumed),8 to 16,128,64,,,
CC[C@H](C)[C@H](NC(=O)CNC(=O)[C@H](CO)NC(=O)[C@@H](NC(=O)[C@H](CC(C)C)NC(=O)CN)[C@@H](C)CC)C(=O)N[C@@H](CC(C)C)C(=O)NCC(=O)N[C@@H](C)C(=O)NCC(=O)N[C@@H](CCCCN)C(=O)N[C@@H](CCCCN)C(=O)N[C@H](C(=O)N[C@@H](CC(C)C)C(=O)N[C@@H](CS)C(=O)NCC(=O)N[C@@H](CC(C)C)C(=O)N[C@@H](CO)C(=O)NCC(=O)N[C@@H](CC(C)C)C(=O)N[C@@H](CS)C(=O)O)C(C)C [OdMa10] (H-GLISGILGAGKKVLCGLSGLC-OH; N-terminus and C-terminus assumed),16 to 32,> 128,64 to 128,,,
"GIFGGLLKEGKKIACGLSGLC [OdTo3, rAMPage-discovered AMP, Odorrana tormota]",32,> 128,> 128,,,
KEERGAPKGCWTKSYPPKPCSGKR [PeNi13],> 128,> 128,> 128,,,
DNKWQNVHFHRSAVTGPTSFSFSHK [AnFl1],,,,> 128,> 128,> 128
CC[C@H](C)[C@H](NC(=O)CNC(=O)[C@H](C)NC(=O)[C@@H](NC(=O)[C@H](CC(N)=O)NC(=O)[C@H](CCCCN)NC(=O)[C@H](C)NC(=O)[C@H](C)NC(=O)CNC(=O)[C@H](CCCCN)NC(=O)[C@@H](NC(=O)[C@@H](NC(=O)[C@H](CC(=O)O)NC(=O)[C@H](CC(C)C)NC(=O)[C@H](CC(C)C)NC(=O)[C@H](CC(C)C)NC(=O)CN)[C@@H](C)O)C(C)C)C(C)C)C(=O)N[C@@H](CC(C)C)C(=O)N[C@@H](CC(C)C)C(=O)N[C@@H](CC(N)=O)C(=O)N[C@@H](CCCCN)C(=O)N[C@@H](CC(C)C)C(=O)N[C@@H](CCCCN)C(=O)N[C@@H](CS)C(=O)N[C@@H](CCCCN)C(=O)N[C@H](C(=O)N[C@H](C(=O)NCC(=O)N[C@@H](CC(=O)O)C(=O)N[C@@H](CS)C(=O)O)[C@@H](C)O)C(C)C [PeNi10] (H-GLLLDTVKGAAKNVAGILLNKLKCKVTGDC-OH; N-terminus and C-terminus assumed),8,64 to 128,16 to 32,,,
CC(C)C[C@H](NC(=O)CNC(=O)[C@H](CO)NC(=O)[C@H](CC(C)C)NC(=O)CNC(=O)[C@H](CS)NC(=O)[C@H](CC(C)C)NC(=O)[C@@H](NC(=O)[C@H](CCCCN)NC(=O)[C@H](CCCCN)NC(=O)CNC(=O)[C@@H](NC(=O)CNC(=O)[C@H](CC(C)C)NC(=O)[C@@H](NC(=O)CNC(=O)[C@H](CO)NC(=O)[C@H](CC(C)C)NC(=O)[C@H](CC(C)C)NC(=O)CN)C(C)C)C(C)C)C(C)C)C(=O)N[C@@H](CS)C(=O)O [OdMa7] (H-GLLSGVLGVGKKVLCGLSGLC-OH; N-terminus and C-terminus assumed),8 to 16,128,16 to 32,,,
ISIKEALEHSFFHTVPRKWCKKH [PoSn1],64,> 128,> 128,,,
"TALKSLSILKKLAKLNM [PoSn2, rAMPage-discovered AMP, Polistes snelleni]",64 to 128,> 128,> 128,,,
CC[C@H](C)[C@H](NC(=O)[C@H](CCCCN)NC(=O)[C@H](CS)NC(=O)[C@H](Cc1ccccc1)NC(=O)[C@H](CCCCN)NC(=O)[C@H](CCCNC(=N)N)NC(=O)[C@H](CO)NC(=O)[C@H](Cc1ccc(O)cc1)NC(=O)CNC(=O)[C@H](CS)NC(=O)[C@@H]1CCCN1C(=O)[C@H](C)NC(=O)[C@@H](NC(=O)[C@H](C)NC(=O)[C@H](Cc1ccccc1)NC(=O)[C@H](Cc1ccccc1)NC(=O)[C@H](Cc1ccccc1)NC(=O)[C@H](CCCNC(=N)N)NC(=O)[C@@H](N)CCCNC(=N)N)[C@@H](C)O)C(=O)N[C@H](C(=O)N[C@@H](CCCNC(=N)N)C(=O)N[C@@H](CCCNC(=N)N)C(=O)N[C@@H](CCCCN)C(=O)N[C@@H](CCCNC(=N)N)C(=O)O)[C@@H](C)O [CaCa4] (H-RRFFFATAPCGYSRKFCKITRRKR-OH),16 to 32,32 to 64,> 128,,,
"GFMDTAKNVAKNVAVTLLDNLKCKITKAC [OdMa13, rAMPage-discovered AMP, Odorrana margaretae]",64 to 128,> 128,> 128,,,
CC[C@H](C)[C@H](NC(=O)CN)C(=O)N[C@@H](CC(C)C)C(=O)N[C@@H](CO)C(=O)NCC(=O)N[C@@H](CC(C)C)C(=O)N[C@@H](CC(C)C)C(=O)NCC(=O)N[C@@H](C)C(=O)NCC(=O)N[C@@H](CCCCN)C(=O)N[C@@H](CCCCN)C(=O)N[C@@H](CC(C)C)C(=O)N[C@@H](C)C(=O)N[C@@H](CS)C(=O)NCC(=O)N[C@@H](CC(C)C)C(=O)N[C@H](C(=O)NCC(=O)N[C@@H](CC(C)C)C(=O)N[C@@H](CS)C(=O)O)[C@@H](C)CC [OdTo1] (H-GILSGLLGAGKKLACGLIGLC-OH; N-terminus and C-terminus assumed),8,32 to 64,8 to 16,,,
GLVGKLVKGGLKLIGHVANG [RaSi1],8 to 16,> 128,64 to 128,,,
RKIIAVSVHKLCRVKR [BoUs1],64 to 128,64,> 128,,,
VPFGLKPR [TeRu1],> 128,> 128,> 128,,,
FPFPFGRR [RaSi2],> 128,> 128,> 128,,,
AGLQFPVGRIHRHLKTR [PeNi6],> 128,> 128,> 128,,,

# From publication PMC9774241, “Associating Biological Activity and Predicted Structure of Antimicrobial Peptides from Amphibians and Insects” (Antibiotics, 2022)
